From patent US5747235A, “Silver halide light sensitive emulsion layer having enhanced photographic sensitivity” (Eastman Kodak Company, priority 1996, dated 1998)
Structures can show the parent of a compound that is named as a salt.

How the values were obtained:
[1] = Example 9: photographic speed and fog, 365 nm exposure, red dyed emulsion T-2; settings: for Fog / S365: dye II 0.86 x10^-3; for S365: undyed control=100, dyed control 62; for 365 nm sensitivity of dyed emulsion: dye D-II
Method: (§1) For photographic evaluation, each of the coating strips was exposed for 0.1 sec to a 365 nm emission line of a Hg lamp filtered through a Kodak Wratten filter number 18A and a step wedge ranging in density from 0 to 4 density units in 0.2 density steps. The exposed film strips were developed for 6 min in Kodak Rapid X-ray Developer (KRX). S365, relative sensitivity at 365 nm, was evaluated at a density of 0.2 units above fog.
An AgBrI tabular silver halide emulsion (Emulsion T-2) was prepared containing 4.05% total I distributed such that the central portion of the emulsion grains contained 1.5% I and the perimeter area contained substantially higher I, as described by Chang et. al., U.S. Pat. No. 5,314,793. […] This emulsion was precipitated using deionized gelatin. The emulsion was sulfur sensitized by adding 8.5×10^-6 mole 1,3-dicarboxymethyl-1,3-dimethyl-2-thiourea /mole Ag at 40° C.; the temperature was then raised to 60° C. at a rate of 5° C./3 min and the emulsions held for 20 min before cooling to 40° C. The chemically sensitized emulsion was then used to prepare coatings containing the fragmentable two-electron donor compounds. All of the experimental coating variations in Table III contained the hydroxybenzene 2,4-disulfocatechol (HB3) at a concentration of 13 mmole/ mole Ag, added to the melt before the addition of any further addenda. Where present, the blue sensitizing dye D-I or the red sensitizing dye D-II were added from methanol solution to the emulsion at 40° C. after the chemical sensitization and disulfocatechol addition. The fragmentable two-electron donor compounds were added to the emulsion at 40° C. and the coatings were prepared and tested as described in Example 1, except that the additional gelatin used to prepare the coatings described in Table III was deionized gelatin.
The sulfur sensitized AgBrI tabular emulsion T-2 as described in Example 3 was used to prepare coatings of the fragmentable two-electron donors S-15, S-14, S-13, and S-11, as described in Table IX. All of the experimental coating variations in Table IX contained the hydroxybenzene, 2,4-disulfocatechcol (HB3) at a concentration of 13 mmole/mole Ag, added to the melt before any further addenda. Where present, the red sensitizing dye D-II was added from methanol solution to the emulsion at 40° C. after the chemical sensitization and disulfocatechol addition. The fragmentable two-electron donor compounds were then added to the emulsion and coatings prepared and tested as described in Example I, except that the additional gelatin used to prepare the coatings described in Table IX was deionized gelatin.

[2] = Example 3: photographic speed and fog, 365 nm exposure, emulsion T-2; design: Fog: unit not given here; settings: for effect on dye desensitization: red dyed emulsion (D-II), 365 nm
Method: as §1
(§2) This emulsion was precipitated using deionized gelatin. […] The chemically sensitized emulsion was then used to prepare coatings containing the fragmentable two-electron donor compounds. All of the experimental coating variations in Table III contained the hydroxybenzene 2,4-disulfocatechol (HB3) at a concentration of 13 mmole/ mole Ag, added to the melt before the addition of any further addenda. Where present, the blue sensitizing dye D-I or the red sensitizing dye D-II were added from methanol solution to the emulsion at 40° C. after the chemical sensitization and disulfocatechol addition.

[3] = Example 8: photographic speed and fog, 365 nm exposure, cubic emulsion C-1; design: Fog: unit not given here; settings: for sensitivity increase: both undyed cubic emulsions (C-1 and C-2)
Method: as §1
Two cubic emulsions with uniform halide composition were precipitated using deionized gelatin. Emulsion C-1 was a AgErI emulsion with a 3% I content and a cubic edge length of 0.47 μm and emulsion C-2 was an AgBr emulsion with a cubic edge length of 0.52 μm. The emulsions were sulfur sensitized by adding 1,3-dicarboxymethyl-1,3-dimethyl-2-thiourea at 40° C.; the temperature was then raised to 60° C. at a rate of 5° C./3 min and the emulsions held for 20 min before cooling to 40° C. The amounts of the sulfur sensitizing compound used were 1.0×10^-5 mole/mole Ag for emulsion C-1, and 6.0×10^-6mole/mole Ag for emulsion C-2. These experimental coating variations contained the hydroxybenzene, 2,4-disulfocatechcol (HB3) at a concentration of 13 mmole/mole Ag, added to the melt before the addition of any further compounds. Some of the variations were then dyed with the sensitizing dye D-II, added from methanol solution. The fragmentable electron donor compounds were then added to the emulsion melts at 40° C. and coatings were prepared and tested as described in Example 1 except that the additional gelatin used to prepare the coatings described in Table VIII was deionized gelatin. Also, the dyed coatings were tested for their response to a spectral exposure as described in Example 3.

[4] = Example 3: spectral sensitivity, wedge spectrographic exposure, emulsion T-2; settings: dyed control=100
Method: as §2
(§3) Additional testing was carried out to determine the response of the coatings described in Table III to a spectral exposure. Each of the coating strips was exposed for 0.1 sec on a wedge spectrographic instrument that covers the wavelength range from 400 to 750 nm. The instrument contains a tungsten light source and a step tablet ranging in density from 0 to 3 density units in 0.3 density steps. After developing exposed strips for 6 min in Kodak Rapid X-ray Developer (KRX), speed was read at 10 nm wavelength intervals at a density of 0.3 above fog. Correction for the instrument's variation in spectral irradiance with wavelength was done with a computer and a plot of log sensitivity vs. wavelength was generated. For this exposure, for each dye used, the relative sensitivity was set equal to 100 for the control coating with no fragmentable two-electron donor compound added.

[5] = Example 6: spectral sensitivity, wedge spectrographic exposure, emulsion T-2; settings: dye II 0.86 x10^-3, dyed control=100
Method: as §3
The chemically sensitized AgErI tabular emulsion T-2 as described in Example 3 was used to prepare the experimental coating variations listed in Table VI, comparing fragmentable electron donating compounds PMT-1 and PMT-2 that contain a phenylmercaptotetrazole as the silver halide adsorbing group. For some of the experimental variations listed in Table VI the red sensitizing dye D-II was added from methanol solution to the emulsion at 40° C. after the chemical sensitization. The fragmentable electron donating compounds were then added to the emulsion and coatings prepared and tested for sensitivity at 365 nm and for spectral sensitivity as described in Example 3.

[6] = 0.0022 x10^-3 mole/mole Ag, dye II 0.86 x10^-3
[7] = 0.0022 x10^-3 mole/mole Ag, dye II 0.86 x10^-3, dyed control 68
[8] = 0.007 x10^-3 mole/mole Ag, dye II 0.86 x10^-3
[9] = 0.007 x10^-3 mole/mole Ag, dye II 0.86 x10^-3, dyed control 68
[10] = 0.022 x10^-3 mole/mole Ag, dye I 0.91 x10^-3
[11] = 0.022 x10^-3 mole/mole Ag, dye I 0.91 x10^-3, dyed control 105
[12] = 0.07 x10^-3 mole/mole Ag, dye I 0.91 x10^-3
[13] = 0.07 x10^-3 mole/mole Ag, dye I 0.91 x10^-3, dyed control 105
[14] = 0.07 x10^-3 mole/mole Ag, no dye
[15] = 0.07 x10^-3 mole/mole Ag, no dye, control=100
[16] = 0.16 x10^-3 mol/mol Ag, no dye, control=100

CCSCCN(c1ccccc1)C(CC(=O)O)C(=O)O (stereo not shown) [Compound S-14]
Fog ([1]; 0.007 x10^-3 mol/mol Ag): 0.11
S365 ([1]; 0.007 x10^-3 mol/mol Ag): 89
Fog ([1]; 0.022 x10^-3 mol/mol Ag): 0.14
S365 ([1]; 0.022 x10^-3 mol/mol Ag): 97
365 nm sensitivity of dyed emulsion [1]: restored to that of the undyed emulsion

CCSCCN(c1ccccc1)C(C)C(=O)O (stereo not shown) [Compound S-9, N-(Phenyl)-N-(2-thioethyl-ethyl)alanine sodium salt]
Fog [2, 6]: 0.24
S365 [2, 7]: 115
Fog [2, 8]: 0.44
S365 [2, 9]: 107
Fog [2, 10]: 0.08
S365 [2, 11]: 159
Fog [2, 12]: 0.13
S365 [2, 13]: 162
Fog [2, 14]: 0.13
S365 [2, 15]: 166
effect on dye desensitization [2]: effective in ameliorating dye desensitization
Fog ([3]; 0.005 x10^-3 mol/mol Ag, dye II 0.44 x10^-3): 0.18
S365 ([3]; 0.005 x10^-3 mol/mol Ag, dye II 0.44 x10^-3, dyed control 105): 162
Fog ([3]; 0.016 x10^-3 mol/mol Ag, dye II 0.44 x10^-3): 0.21
S365 ([3]; 0.016 x10^-3 mol/mol Ag, dye II 0.44 x10^-3, dyed control 105): 191
Fog ([3]; 0.05 x10^-3 mol/mol Ag, no dye): 0.07
S365 ([3]; 0.05 x10^-3 mol/mol Ag, no dye, control=100): 229
Fog ([3]; 0.16 x10^-3 mol/mol Ag, no dye): 0.07
S365 [3, 16]: 234
sensitivity increase [3]: approximately a factor of two
Sλ [4, 6]: 162
Sλ [4, 8]: 141
Sλ [4, 10]: 126
Sλ [4, 12]: 138

CCSCCN(c1ccc(C(=O)O)cc1)C(C)C(=O)O (stereo not shown) [Compound S-11]
Fog ([3]; 0.05 x10^-3 mol/mol Ag, dye II 0.44 x10^-3): 0.14
S365 ([3]; 0.05 x10^-3 mol/mol Ag, dye II 0.44 x10^-3, dyed control 105): 162
Fog ([3]; 0.16 x10^-3 mol/mol Ag, dye II 0.44 x10^-3): 0.16
S365 ([3]; 0.16 x10^-3 mol/mol Ag, dye II 0.44 x10^-3, dyed control 105): 186
Fog ([3]; 0.16 x10^-3 mol/mol Ag, no dye): 0.07
S365 [3, 16]: 219
Fog ([3]; 0.50 x10^-3 mol/mol Ag, no dye): 0.07
S365 ([3]; 0.50 x10^-3 mol/mol Ag, no dye, control=100): 234
sensitivity increase [3]: approximately a factor of two
Fog ([1]; 0.007 x10^-3 mol/mol Ag): 0.12
S365 ([1]; 0.007 x10^-3 mol/mol Ag): 87
Fog ([1]; 0.022 x10^-3 mol/mol Ag): 0.13
S365 ([1]; 0.022 x10^-3 mol/mol Ag): 100
365 nm sensitivity of dyed emulsion [1]: restored to that of the undyed emulsion

CCSCCN(c1ccc(C)cc1)[C@@H](C)C(=O)[O-].[Na+] [Compound S-3, N-(4-Methylphenyl)-N-(2-ethylthio-ethyl)alanine sodium salt]
Fog [2, 6]: 0.28
S365 [2, 7]: 120
Fog [2, 8]: 0.75
Fog [2, 10]: 0.16
S365 [2, 11]: 132
Fog ([2]; 0.022 x10^-3 mole/mole Ag, no dye): 0.13
S365 ([2]; 0.022 x10^-3 mole/mole Ag, no dye, control=100): 151
effect on dye desensitization [2]: effective in ameliorating dye desensitization
Sλ [4, 6]: 166
Sλ [4, 10]: 120

CCSCCN(c1ccc(C)cc1)C(CC(=O)O)C(=O)O (stereo not shown) [Compound S-8]
Fog [2, 6]: 0.11
S365 [2, 7]: 97
Fog [2, 8]: 0.15
S365 [2, 9]: 112
Fog [2, 10]: 0.07
S365 [2, 11]: 118
Fog [2, 12]: 0.12
S365 [2, 13]: 120
Fog [2, 14]: 0.13
S365 [2, 15]: 162
effect on dye desensitization [2]: effective in ameliorating dye desensitization
Sλ [4, 6]: 141
Sλ [4, 8]: 166
Sλ [4, 10]: 112
Sλ [4, 12]: 112

Cc1ccc(N(CCC(=O)Nc2cccc(-n3nnnc3S)c2)C(C)C(=O)O)cc1 (stereo not shown) [PMT-1]
Sλ ([5]; 0.0006 x10^-3 mole/mole Ag): 115
Sλ ([5]; 0.0017 x10^-3 mole/mole Ag): 145
Sλ ([5]; 0.0055 x10^-3 mole/mole Ag): 126

CCSCCN(c1cccc(C(N)=O)c1)C(C)C(=O)O (stereo not shown) [Compound S-13]
Fog ([1]; 0.007 x10^-3 mol/mol Ag): 0.13
S365 ([1]; 0.007 x10^-3 mol/mol Ag): 95
Fog ([1]; 0.022 x10^-3 mol/mol Ag): 0.20
S365 ([1]; 0.022 x10^-3 mol/mol Ag): 102
365 nm sensitivity of dyed emulsion [1]: restored to that of the undyed emulsion

CC(C(=O)O)N(CCC(=O)Nc1cccc(-n2nnnc2S)c1)c1ccccc1 (stereo not shown) [PMT-2]
Sλ ([5]; 0.0005 x10^-3 mole/mole Ag): 123
Sλ ([5]; 0.0016 x10^-3 mole/mole Ag): 145
Sλ ([5]; 0.005 x10^-3 mole/mole Ag): 151
